Reference: a melting point compilation (Tetko et al.; mined from patent text by program, amines drawn as free bases though some values may be those of a salt)

Structure (SMILES) | melting point
CCCCCCCCNC(=O)NCc1ccc(O)c(OC)c1 | 90 to 92 °C
CCCCOC(=O)NCCc1nc(-c2ccc(-c3ccccc3)cc2)c[nH]1 | 137 °C
CNc1nc(Nc2ccc(Cl)c(CNC(=O)OC(C)(C)C)c2)ncc1[N+](=O)[O-] | 195 °C
COP(=O)(OC)[C@@H](O)[C@H](CC1CCCCC1)NC(=O)[C@H](CC(C)C)NC(=O)CCc1ccccc1 | 157 °C
CCOC(=O)c1cnc(Nc2ccccc2F)[nH]c1=O | 250 to 252 °C
Cn1cnc2c3cccnc3n(-c3ccccc3)c(=O)c21 | > 300 °C
CCCC1(C)SC(=NOC(=O)NC)N=C1C (configuration not stated) | 66 to 69 °C
CCOC(=O)Cc1c(C)nc(Nc2nc3cc(C)c(C)cc3[nH]2)nc1O | > 300 °C
CC(C)N(C(=O)CO)c1ccccc1 | 39 °C
O=c1[nH]c2c(Cl)cc(Cl)cc2c2nc(-c3ccccc3)nn12 | 309 to 311 °C
Cc1cc(CC=CCO)c(O)c2c1NC(=O)C2(C)C | 174 °C
CC(C)CCCC(C)C1CCC2C3CC=C4CC(OCCC#CCCOC(c5ccccc5)(c5ccccc5)c5ccccc5)CCC4(C)C3CCC12C (configuration not stated) | 112 to 113 °C
CCCc1c(OCCc2ccc3cc(O)c(O)cc3c2)ccc(C(=O)O)c1O | 216 to 218 °C
COCCOc1ccc([N+](=O)[O-])cc1F | 62 to 63 °C
CNS(=O)(=O)Cc1ccc2[nH]cc(CC(=O)O)c2c1 | 126 to 133 °C
c1ccc(COc2ccc(Cn3cnc4c(-c5ccco5)ncnc43)cc2)cc1 | 145 to 146 °C
CC(C)(C)CC(=O)c1ccc(OCC(=O)O)c(Cl)c1Cl | 145 to 146 °C
CC(C)(C)n1cc(CN(Cc2cn(CCO)nn2)Cc2cn(C(C)(C)C)nn2)nn1 | 82 to 83 °C
CCc1noc(-c2cn(-c3cccc(OC(C)C)c3)cn2)n1 | 107 °C
CC(=O)N1CCc2ccc(S(=O)(=O)C(F)(F)F)cc2C1 | 199 to 200 °C
CCCc1c(C(C)C)nn2ccccc12 | 41 to 42 °C
N#CCC(=O)NCc1ccc(Cl)c(Cl)c1 | 144 to 145 °C
O=c1c2ccc(Cl)cc2[nH]c2c(O)nn(Cc3cccc(-c4nnn[nH]4)c3)c(=O)c12 | > 275 °C

Structure (SMILES) | melting point
CON(C)C(=O)c1ccc(Cl)c(Cl)c1 | 39.5 to 43.2 °C
CCCCCCCCCCCCCCCCCCOc1cc(OCCCP(=O)(OCC)OCC)cc(C(=O)O)c1 | 53 to 55 °C
CC(=O)CC(=O)NCC1(C)CC(NC(=O)CC(C)=O)CC(C)(C)C1 (configuration not stated) | 144 to 147 °C
Cc1c(C(=O)OCc2ccccc2)sc2ccc3[nH]c4c(c3c12)CNCC4 | 178 °C
Brc1cccc(C2Cc3cnc(Nc4ccc(CCNc5ccccc5)cc4)nc3-c3ccccc32)c1 (configuration not stated) | 92 to 94 °C
O=C(O)Cn1cc(Cc2nc3c(F)c(F)cc(F)c3s2)c2cccc(Cl)c21 | 228 to 230 °C
CC(=O)c1ccc(Oc2ccc(-c3scc(-c4ccccc4Cl)c3CC(=O)N=C(N)N)cc2)cc1 | 117 to 118 °C
O=C1CCCN1c1ccc(N2C[C@H](CO)OC2=O)cc1 | 148 °C
O=c1c2cc(SC(F)(F)F)ccc2ccn2cccc12 | 155 to 159 °C
Fc1ccc(C(F)(F)C(F)(F)c2ccccc2Br)cc1 | 52 to 53.5 °C
CP(C)(=O)C(CC(=O)O)C(=O)O (configuration not stated) | 174 to 177 °C
CC(=O)Nc1c(C(=O)c2cccc(C(N)=O)c2)[nH]c2cc(Cl)ccc12 | 243 to 247 °C
CC1(O/N=C(\C(=O)O)c2csc(N)n2)CCCC1 | 182 to 183 °C
CCOC(=O)CC(=O)Sc1cc(Cl)c(Cl)cc1Cl | 41 to 43 °C
Cn1c(=O)c2c(N3CCCCC3)cccc2n2cnc(-c3noc(C4CC4)n3)c12 | 185 to 192 °C
COC(=O)c1c(OCc2ccccc2)ccc2c1CC[C@@H](N)[C@@H]2O (relative stereo) | 124 to 126 °C
COc1cccc(OC)c1-c1cc(C(=O)NC2(C(=O)O)C3CC4CC(C3)CC2C4)nn1-c1ccnc2cc(Cl)ccc12 (configuration not stated) | > 260 °C
CCOC(=O)CCCn1nc(-c2c(-c3ccccc3)nn3ccccc23)ccc1=O | 71 to 75 °C
CC(C)=CC#Cc1cc(C)cc(Oc2cc(C(F)(F)F)nn2C)n1 | 85 °C
Nc1nnc(SCc2ccc(Cl)cc2)s1 | 162 to 164 °C
COc1ccc(NC(=O)CN2CC(C)N(C(c3ccc(F)cc3)c3ccc(F)cc3)CC2C)cc1 (configuration not stated) | 131 °C
CCN(CC)c1ccc(C(=O)NCCNC(=O)c2ccc(N(CC)CC)cc2)cc1 | 166 to 167 °C
CCOC(=O)NNc1cc(C)c(-c2ccc(C#N)cc2)nn1 | 189 to 191 °C

Structure (SMILES) | melting point
OCc1nc(-c2cccs2)cs1 | 113 to 114 °C
O=c1ncc(Cl)cn1CSCc1ccccc1 | 186 °C
O=C(OC1CCCCC1)c1ncn2c1[C@@H]1CCN1C(=O)c1cc(F)ccc1-2 | 231 to 232 °C
CC(C)(C)c1cc(NC(=O)c2csc(-c3ccc(N)cc3)n2)cc(C(C)(C)C)c1O | 267 to 268 °C
Cc1ccccc1C(=O)Nc1ccc(C(=O)N2CCCCc3sccc32)cc1 | 181 to 182 °C
CNC(=S)NN=C(CCCNC(=O)c1ccccc1)c1ccccc1 | 114 to 118 °C
O=[N+]([O-])c1nccn1C1CCCC1O (configuration not stated) | 109 °C
Nc1cc(=O)n(Cc2ccc(I)cc2)[nH]1 | 158 °C
CC(=O)NC[C@H]1CN(c2ccc(N3CCC(O)(CC(N)=O)CC3)c(F)c2)C(=O)O1 | 208 to 210 °C
CC(C)C(NC(=O)c1ccccc1SSc1ccccc1C(=O)NC(C(=O)O)C(C)C)C(=O)O (configuration not stated) | 226 to 228 °C
CN(C1CCN(C2CC2)CC1)S(=O)(=O)c1ccc(Nc2nccc(Nc3ccc(F)cc3)n2)cc1 | 125 to 128 °C
O=C(O)Cc1c(Cl)nc(-c2cccc(O)c2)n1Cc1ccccc1 | 220 to 222 °C
Clc1ccc2oc(-c3ccc(N4CCCCC4)cc3)nc2c1 | 162 to 164 °C
Cc1ccccc1-c1nnc(N2CCC(O)CC2)nc1-c1ccccc1C | 155 to 156 °C
Cc1cc(-c2cccc(C(F)(F)F)c2)c2nc(OCC(F)(F)F)cnc2c1 | 46 to 48 °C
NC(=O)c1cc([N+](=O)[O-])cnc1C(Br)Br | 156 to 158 °C
CC(C)CCn1cc(C(=O)Nc2nccs2)c2ccc(Cl)cc21 | 179 to 180 °C
CN1Sc2sccc2C=C1CN1CCOCC1 | 104 to 106 °C
COc1cc2c(cc1O)CCN(Cc1cccc(C#N)c1)C2 | 113 to 155 °C
O=C(Nc1nncs1)C(=O)c1cn(Cc2ccc(F)cc2)c2ccccc12 | 218 to 220 °C
N#CCCNC(=O)c1cccc(-c2cccc3cn(Cc4cccc(C(F)(F)F)c4)nc23)c1 | 174 to 175 °C
CC(C)c1cc(-c2ccc(F)c3ccccc23)nc(NS(C)(=O)=O)n1 | 276 to 277 °C

Now from value to molecule:

melting point | Structure (SMILES)
131 to 132 °C | CCOc1c(OC)cc(C)c(C(=O)c2c(OC)ccc(Cl)c2C)c1OC
< 30 °C | CCCCOCC(O)COc1cc(C)c(OCC(O)COCCCC)cc1C (configuration not stated)
101 to 102 °C | CN1C(=O)C(=C2CCN(Cc3ccccc3)CC2)c2ccccc21
129 to 133 °C | CC(=NNc1ccccc1)c1c(-c2ccccc2)noc1C
230 to 233 °C | CCC1(CO)CCCN2CCc3c([nH]c4ccccc34)C21 (configuration not stated)
218 to 219 °C | O=C(CCl)Nc1ccc(C(O)(C(F)(F)F)C(F)(F)F)cc1O
85 to 86 °C | CC(C)n1c(=Nc2ccccc2)sc2ncccc2c1=O
236 to 238 °C | Cc1ccnc2c1nc(-c1cccnc1N)n2-c1ccc(CC(=O)Nc2ccccc2)cc1
70 to 71 °C | CCOC(=O)CCc1cn(-c2ccc(Cl)cn2)nc1C(C)C
232 to 233 °C | O=Cc1coc2cc3c(cc2c1=O)OCO3
289 to 290 °C | COC(=O)C1=C(C)Nc2nc[nH]c(=O)c2C1c1cccc([N+](=O)[O-])c1 (configuration not stated)
214 to 217 °C | CCOC(=O)C(=O)Nc1ccc(NC(=O)C(=O)OCC)cc1
139 to 140 °C | Nc1nc(OC2CCC2)c2ncn(C3CC(F)C(CO)O3)c2n1 (configuration not stated)
137 to 139 °C | COC(=O)CCC(=NO)C(C)(C)NCCCNC(C)(C)C(Cn1ccnc1[N+](=O)[O-])=NO
60 °C | Cc1ccc(Br)c(C)c1C#N
256 to 257 °C | COc1c(-c2ccc3cc(NS(C)(=O)=O)ccc3c2)cc(-n2ccc(=O)[nH]c2=O)cc1C(C)(C)CO
313 to 318 °C | Cn1ccc2c3c(c(C(=O)O)cc21)C(=O)NC3=O

melting point | Structure (SMILES)
189 to 191 °C | O=C(NC1CCCCC1)c1ccc(Cn2cnc3ccccc32)cc1
63 to 65 °C | CC(C)(C)c1ccc(C(=O)CCCN2CCC(O)CC2)cc1
132 °C | CC1=CC(O)(c2nc3ccccc3s2)C=C(C)C1=O
180 to 182 °C | CCCCOc1ccc2nc(C(=O)NCC(=O)O)c(O)cc2c1
245 to 247 °C | COC(=O)C1(NS(=O)(=O)c2ccc3c(Cl)cnc(NC(=N)N)c3c2)CCOCC1
232 to 234 °C | Cc1ccc(CCC(=O)c2c(O)c3cccnc3n(-c3ccccc3)c2=O)cc1
209 to 210 °C | CC(C)N1C(=O)C(NC(=O)CCC2CCCCC2)N=C(N(C)C)c2ccccc21 (configuration not stated)
109 to 122 °C | CC(C)(C)c1cc(-c2nnc(NN)s2)cc(C(C)(C)C)c1O
213 to 214 °C | CC1(C)CCC(C)(C)c2cc(C3NC(=O)NC3=O)ccc21 (configuration not stated)
190 to 193 °C | Cn1cc(C(=O)NCc2ccc(Cl)cc2)c(=O)c2cc(CN3CCOCC3)cc(C#CCC(CO)CO)c21
198 to 200 °C | COc1ccccc1-c1nc(-c2cccnc2)c(C)[nH]1
77 to 79 °C | CCCCOCCOc1ccc(-c2ccc3c(c2)C=C(C(=O)Nc2ccc(CSc4nncs4)cc2)CCN3CC(C)C)cc1
263 to 264 °C | COC(=O)C1=C(C)Nc2nccn2C1c1cccc([N+](=O)[O-])c1 (configuration not stated)
80 to 81 °C | CSCCCNc1cn(-c2cccnc2)nc1Cl
52 °C | CC(C)=CC(=O)Nc1ccccc1CCN1CCN(c2nsc3ccccc23)CC1
113 to 114 °C | O=C(COc1cc(-c2ccccc2)on1)NCCO[N+](=O)[O-]
154 to 158 °C | N#Cc1ccc(C(=O)O)c(Cl)c1
